# Laboratory results taken from US11434205B2, “Substituted imidazole carboxylate derivatives and the use thereof” (priority 2018, dated 2022).
# Where two headings read alike, the source gives them in different places.
# Columns and labels:
# rats [1] = experiment: Loss of righting reflexes (LORR) assay in rats, ED50 by up and down method; assay type: in vivo, rat; conditions: Rattus norvegicus, tail vein, class symbols
# Protocol: The Anesthetic Activity of the Compounds was Assessed in Rats Using a Loss of Righting Reflexes (LORR) Assay
# (§1) Adult male Sprague-Dawley rats (250-300 g) were selected for the experiment. […] The anesthesia effects of the compounds were assessed in rats using a LORR assay and a period >30 s was considered as an indicator of general anesthesia. Then the up and down method was used to determine 50% effective dose (ED50). The drugs were administered through the tail vein of rats in a volume of 0.6 mL and at a rate of 0.1 mL/s.
# rats [2] = experiment: Pharmacological characteristics at equivalent doses (2×ED50) in rats; conditions: 2×ED50, tail vein; for Adverse reactions: Red urine (incidence): DMSO solution (DMSO alone 10/10); for Onset time: time of LORR; for Adverse reactions: Tremor (incidence): animals affected/animals
# Protocol: Comparison of Pharmacological Characteristics of the Compounds at Equivalent Doses (2×ED50) in Rats
# Adult male Sprague-Dawley rats (250-300 g) were selected for the experiment (n=8). […] The drugs were administered at a dose twice their ED50 through the tail vein of rats in a volume of 0.6 mL and at a rate of 0.1 mL/s. In addition, the time of LORR was recorded as the onset time of anesthesia. […] Furthermore, the duration of the pharmacological effects is sufficient to meet the time requirements for rapid induction of general anesthesia and for diagnostic examinations, some short invasive clinical examinations, or operations.
# rats [3] = test system: rats
# Protocol: as §1
# rats [4] = assay type: in vivo, rat; conditions: rats of the MAP/HR figures, 2×ED50, tail vein
# [5] = test system: secretion of cortisol, H295R cell line; experiment: cells; assay type: cell-based; conditions: for EC50: read-out: EC50 (Cortisol)
# Protocol: (§2) The Effects of the Compounds on Adrenocortical Function In Vitro Test
# (§3) Then secretion of the cortisol and corticosterone in the supernatant, was measured using HPLC-MS/MS method to determine whether the compounds of the present invention had adrenotoxic potential.
# [6] = test system: secretion of corticosterone, H295R cell line; experiment: cells; assay type: cell-based; conditions: for EC50: read-out: EC50 (Corticosterone)
# Protocol: as §2, §3
# rats [7] = test system: rats; remark: listed apart in the source
# Protocol: Pharmacological Effects of the Compounds on Continuous Infusion in Rats
# Adult male Sprague-Dawley rats with body weight ranging from 250 to 300 gm were selected for continuous infusion test. […] Time to recovery of righting reflex from stopping infusion, and time to fully awake from stopping infusion were recorded.
# rats [8] = assay type: in vivo, rat; conditions: rats of the MAP/HR figures, 2×ED50, tail vein; same value in min
# Protocol: The Effects of the Compounds on the Circulatory Function were Measured in Rats Using a Small Animal Implanted Physiological Signal Telemetry System
# The anesthetic activity of the compounds was assessed in rats using a LORR assay and the up and down method was used to determine ED50. […] A small animal implantable physiological signal telemetry system from DSI (Data Science International, Inc.) was used to measure the changes in heart rate (HR) and blood pressure in rats during 30 min after administration. Then mean arterial pressure (MAP) and HR were used as representative indicators to determine hemodynamic stability of the compounds of the present invention in rats.
# A small animal implantable physiological signal telemetry system from DSI (Data Science International, Inc.) including implants (RATHD-521, DSI, United States), receiver boards (RPC-1, DSI, United States), signal conversion devices (DEM, DSI, USA), perfusion glue (DSI, USA), fibrin membrane (DSI, USA), etc.
# First, animal models were established. A left ventricular catheter, an abdominal aortic catheter and ECG wires were placed into rats. At least one week after surgery, data were recorded.
# Administration procedure: rats were put into a restraint device with a 20 G indwelling catheter placed into a lateral tail vein. After administration of 0.2 mL heparin, a pre-filled extension tube was attached and taped to the tail vein to secure the extension tube. Then the rats were removed from the restraint device to a cage before placing them together on the signal receiver. […] Finally, the pharmacological effects, adverse reactions, and behavioural manifestations of the rats were observed and recorded
# Data collection: After setting the data collection parameters on the software, the power of the implant was turned on to start data collection. In this experiment, data recording frequency was set to 15 s. Data collection was continuously recorded for 30 min before and after administration of the drugs in rats. After data acquisition, the test was stopped.
# [9] = emulsion, continuous infusion at 2×MIR
# [10] = H295R cell line, 0.1-10000 nM, HPLC-MS/MS, Table D3
# [11] = continuous tail vein infusion at 2×MIR, LORR maintained 1 hour, Table D4
# [12] = H295R cell line, 0.1-10000 nM, HPLC-MS/MS, Table E3
# [13] = continuous tail vein infusion at 2×MIR, LORR maintained 1 hour, Table E4
SMILES,ED50 (rats [1]),Righting reflex duration (rats [2]),Adverse reactions: Red urine (incidence) (rats [2]),Onset time (rats [2]),Approximate therapeutic index (rats [3]),Minimal lethal dose (rats [3]),recovery time of the test animals' righting reflex (rats [4]),"EC50 ([5]; Homo sapiens, NCI-H295R)","EC50 ([6]; Homo sapiens, NCI-H295R)",recovery time of the test animals' righting reflex (rats [8]),further results
C[C@H](c1ccccc1)n1cncc1C(=O)OCC1(C)CSC1 [Compound B8],0.5 to 1 mg/kg,5.00 ± 1.25 min,Red urine (8/8),0.13 ± 0.05 min,>10,>10 mg/kg,–,–,–,–,–
CCCC1(COC(=O)c2cncn2[C@H](C)c2ccccc2)COC1 [Compound B10],–,–,–,–,–,–,81 s,> 1 µM,> 1 µM,1.35 min,"Cortisol as an indicator to determine the presence of inhibition ([5]; H295R, Table B3): 0; Corticosterone as an indicator to determine the presence of inhibition ([6]; H295R, Table B3): 0; Recovery time after stopping infusion (rats [7]; after 1 hour infusion at 2×MIR): 9 to 12 min; Adverse reactions: Tremor (incidence) (rats [7]; continuous infusion 2×MIR): Tremor (3/6); Onset time (rats [7]; [9]): 3 to 4 min"
CCC1(OC(=O)c2cncn2[C@H](C)c2ccccc2)COC1 [Compound B18],–,–,–,–,–,–,279 s,> 1 µM,> 1 µM,4.65 min,"Cortisol as an indicator to determine the presence of inhibition ([5]; H295R, Table B3): 0; Corticosterone as an indicator to determine the presence of inhibition ([6]; H295R, Table B3): 0; Recovery time after stopping infusion (rats [7]; after 1 hour infusion at 2×MIR): 15 to 18 min; Adverse reactions: Tremor (incidence) (rats [7]; continuous infusion 2×MIR): Tremor (4/6); Onset time (rats [7]; [9]): 3 to 4 min"
C[C@H](c1ccccc1)n1cncc1C(=O)OC1(CC2CO2)COC1 (stereo partly shown) [Compound B22],0.5 to 1 mg/kg,1.24 ± 0.12 min,8/8,0.92 ± 0.14 min,>10,>17 mg/kg,–,–,–,–,Adverse reactions: Tremor (incidence) (rats [2]): 4/8
C[C@H](c1ccccc1)n1cncc1C(=O)OC1(C)COC1 [Compound B28],0.1 to 0.5 mg/kg,3.32 ± 0.72 min,Red urine (8/8),0.29 ± 0.15 min,>13,>10 mg/kg,–,–,–,–,–
C[C@H](c1ccccc1)n1cncc1C(=O)SCC1COC1 [Compound B29],–,–,–,–,–,–,112 s,> 10 µM,> 10 µM,1.87 min,"Cortisol as an indicator to determine the presence of inhibition ([5]; H295R, Table B3): 0; Corticosterone as an indicator to determine the presence of inhibition ([6]; H295R, Table B3): 0; Recovery time after stopping infusion (rats [7]; after 1 hour infusion at 2×MIR): 8 to 10 min; Types and incidence of adverse reactions (rats [7]; continuous infusion 2×MIR, in words): No; Onset time (rats [7]; [9]): 2 to 3 min"
C=CCC1(OC(=O)c2cncn2[C@H](C)c2ccccc2)CCC1 [Compound D12],0.5 to 1 mg/kg,2.15 ± 1.03 min,Red urine (8/8),0.32 ± 0.09 min,>14,>10 mg/kg,–,–,–,–,–
[2H]C#CC(C)(C)OC(=O)c1cncn1[C@H](C)c1ccccc1 [Compound D16],0.5 to 1 mg/kg,1.17 ± 0.98 min,Red urine (8/8),0.36 ± 0.19 min,>12,>6 mg/kg,–,–,–,–,–
C=CC(CC)(CC)OC(=O)c1cncn1[C@H](C)c1ccccc1 [Compound D24],0.5 to 1 mg/kg,0.80 ± 0.20 min,Red urine (8/8),0.56 ± 0.31 min,>13,>7 mg/kg,–,–,–,–,–
C=C(C)CC1(OC(=O)c2cncn2[C@H](C)c2ccccc2)CCC1 [Compound D26],0.1 to 0.5 mg/kg,1.36 ± 0.52 min,urine (8/8),0.56 ± 0.19 min,>10,>4 mg/kg,–,–,–,–,"Adverse reactions: Myoclonus (incidence) (rats [2]): Myoclonus (3/8), Red"
C#CC1(OC(=O)c2cncn2[C@H](C)c2ccccc2)CSC1 [Compound D27],0.5 to 1 mg/kg,2.15 ± 1.03 min,Red urine (8/8),0.32 ± 0.09 min,>10,>10 mg/kg,–,–,–,–,–
CC#CC1(OC(=O)c2cncn2[C@H](C)c2ccccc2)CSC1 [Compound D29],0.5 to 1 mg/kg,1.19 ± 0.64 min,(8/8),0.73 ± 0.10 min,>13,>10 mg/kg,–,–,–,–,"Adverse reactions: Tremor (incidence) (rats [2]): Tremor (3/8), Red urine"
CC#CC1(OC(=O)c2cncn2[C@H](C)c2ccccc2)CCSC1 (stereo partly shown) [Compound D30],0.5 to 1 mg/kg,1.32 ± 0.61 min,urine (8/8),0.43 ± 0.22 min,>11,>5 mg/kg,–,–,–,–,"Adverse reactions: Myoclonus (incidence) (rats [2]): Myoclonus (2/8), Red"
C[C@H](c1ccccc1)n1cncc1C(=O)OC(C)(C)C#CC#CC(C)(C)O [Compound D38],–,–,–,–,–,–,193 s,> 10 µM,> 10 µM,3.22 min,"Cortisol as an indicator to determine the presence of inhibition [5, 10]: 0; Corticosterone as an indicator to determine the presence of inhibition [6, 10]: 0; Onset time (rats [7]; [11]): 3 to 4 min; Recovery time after stopping infusion (rats [7]; [11]): 12 to 14 min; Types and incidence of adverse reactions (rats [7]; [11]): Tremor (5/6)"
C[C@H](c1ccccc1)n1cnc(F)c1C(=O)OC(C)(C)C [Compound E12],–,–,–,–,–,–,214 s,> 10 µM,> 10 µM,3.57 min,"Cortisol as an indicator to determine the presence of inhibition [5, 12]: 0; Corticosterone as an indicator to determine the presence of inhibition [6, 12]: 0; Onset time (rats [7]; [13]): 2 to 3 min; Recovery time after stopping infusion (rats [7]; [13]): 11 to 23 min; Types and incidence of adverse reactions (rats [7]; [13]): Tremor (2/6)"
CC(OC(=O)c1c(F)ncn1C(C)c1ccccc1)=C1CCCC1=O (stereo not shown) [Compound E31],–,–,–,–,–,–,105 s,–,–,1.75 min,"Cortisol as an indicator to determine the presence of inhibition [5, 12]: 0; EC50 [5, 12]: > 10 µM; Corticosterone as an indicator to determine the presence of inhibition [6, 12]: 0; EC50 [6, 12]: > 10 µM; Onset time (rats [7]; [13]): 3 to 4 min; Recovery time after stopping infusion (rats [7]; [13]): 8 to 11 min; Types and incidence of adverse reactions (rats [7]; [13]): Tremor (3/6)"
C=C=CC1(OC(=O)c2c(C(F)(F)F)ncn2[C@H](C)c2ccccc2)COC1 [Compound E163],–,–,–,–,–,–,95 s,–,–,1.58 min,"Cortisol as an indicator to determine the presence of inhibition [5, 12]: 0; EC50 [5, 12]: > 10 µM; Corticosterone as an indicator to determine the presence of inhibition [6, 12]: 0; EC50 [6, 12]: > 10 µM"
CCOC(=O)c1c(C(F)(F)F)ncn1[C@H](C)c1ccccc1 [Compound E164],–,–,–,–,–,–,77 s,> 10 µM,> 10 µM,1.28 min,"Cortisol as an indicator to determine the presence of inhibition [5, 12]: 0; Corticosterone as an indicator to determine the presence of inhibition [6, 12]: 0"
